Data set [1] deals with proline specific peptidase (svPEP). As to the kind of experiment: Effects of inhibitors on the activity of proline specific peptidase (svPEP), Ala-Ala-Pro-pNA as substrate. It is filed as biochemical, S. mobaraense IFO13819. Particulars: for inhibition of svPEP activity (in words): Ala-Ala-Pro-pNA as substrate.
Data set [2] shares this test system. As to the kind of experiment: Substrate specificity of svPEP (cleaving activity on pNA-, βNA-conjugated peptides and peptides). It is filed as biochemical, S. mobaraense IFO13819. Particulars: for relative activity (specificity of svPEP for peptide substrate): 20 mM sodium phosphate buffer pH 6.5, 37° C., 5 min, AAP-pNA = 100; for substrate recognition by svPEP (in words): cleavage at carboxyl terminal side of proline residue.

Data set [3] can be described thus: Transglutaminase activity by hydroxamate method. It is filed as biochemical.
Data set [4] can be described thus: Isoelectric point of svPEP. It is filed as physicochemical.
Data set [5] is described as follows: Enzyme properties of svPEP (optimum pH, pH stability, optimum temperature, temperature stability). It is filed as biochemical. As to the method: were used as a buffer, respectively. The enzyme was allowed to act on Ala-Ala-Pro-pNA as the substrate at 30° C. for 5 minutes. Relative activity of the enzyme in each buffer was calculated compared to the activity in 20 mM sodium phosphate buffer, pH6.5 as 100%. […] (iii) pH Stability
0.15 M GTA buffers (buffers composed of 3,3-dimethylglutaric acid, tris(hydroxymethyl)aminomethane, 2-amino-2-methyl-1,3-propanediol) ranging between pH 3 and pH10 were used. To 20 µl of purified enzyme solution, 40 μl of the buffer at each pH was added and the reaction mixtures were allowed to stand overnight at 4° C., then adjusted to pH 7.0 and the volume was made up to 120 μl. To 50 μl aliquots, Ala-Ala-Pro-pNA was added and the reaction was performed at 30° C. for 5 minutes. Relative amounts of substrate which the enzyme decomposed at each pH were considered to be the remaining activity compared to the activity of the enzyme as 100% when the enzyme was stored under the same condition as described above except for pH 7.0.
To 50 μl of purified enzyme solution, 0.5 ml of 20 mM sodium phosphate buffer (pH 6.5) was added and Ala-Ala-Pro-pNA was added up to 0.25 mM and the mixture was maintained at 20° C.-60° C. for 5 minutes to effect decomposition reaction. Relative amount of substrate which the enzyme decomposed was considered to be the relative activity at each temperature, compared to the amount of substrate decomposition at 25° C. as 100% activity.
To 50 μl of purified enzyme solution, 0.5 ml of 20 mM sodium phosphate buffer (pH 6.5) was added. The mixture was maintained at 4° C. or 20° C.-60° C. for 15 minutes and then cooled on ice. Ala-Ala-Pro-pNA was added up to 0.25 mM and the mixture was maintained at 30° C. for 5 minutes. The remaining activity was calculated assuming the activity of the enzyme which was treated at 4° C. to be 100%.

Setting [6] is: compound 10 mM, 10 min room temperature, then Ala-Ala-Pro-pNA, 30° C., 5 min, activity without compound = 100%.
Setting [7] is: compound 1 mM, 10 min room temperature, then Ala-Ala-Pro-pNA, 30° C., 5 min, activity without compound = 100%.

“Also recorded” adds a separate entry of the source. Read-outs that look alike come from different tables or passages of the source. *1 amine or outer side, *2 acyl side, *3 side chain or, on linkers, in order; H or OH if unused. Where a SMILES comes first, the peptide text is derived from it. Primed or numbered codes have the meaning given here. Where no end group is shown, it is not given here. [ ]: non-standard residue; d: D form. The star is where a group is joined. Sta = CC(C)C[C@H](N)[C@@H](O)CC(=O)O; pNA = O=[N+]([O-])c1ccc(N*)cc1; Suc = O=C(CCC(=O)[*:2])[*:1]; Isovaleryl = CC(C)CC(=O)*; code Z = not defined here; βNA = c1ccc2cc(N*)ccc2c1; Bz′ = not defined here; Cbz = O=C(OCc1ccccc1)*

Regarding `O[C@H](CS)[C@H](O)CS` (racemic) [Dithiothreitol], the relative activity in data set [1] (setting [6]) turned out to be 102.5%.
Take `c1cnc2c(c1)ccc1cccnc12` [1,10-Phenanthroline]: the relative activity in data set [1] (setting [7]) was determined as 92.5%.
Same read-out and setting: the value for `CC(C)C[C@H](NC(=O)[C@@H](O)[C@H](N)Cc1ccccc1)C(=O)O` [Bestatin] was 97.6%.
As to `CC(C)C[C@H](NC(=O)[C@@H](NC(=O)N[C@@H](Cc1ccccc1)C(=O)O)[C@@H]1CCN=C(N)N1)C(=O)N[C@H](C=O)Cc1ccccc1` [Chymostatin], the relative activity in data set [1] amounted to 84.9%.
As for `O=C(O)CN(CCN(CC(=O)O)CC(=O)O)CC(=O)O` [EDTA], in data set [1] (setting [6]), the relative activity worked out at 105.2%.
Turning to `NC(=O)CI` [Iodoacetamide], the relative activity in data set [1] worked out at 87%.
For the molecule `CCN1C(=O)C=CC1=O` [N-Ethylmaleimide], the relative activity in data set [1] (setting [7]) came to 98.3%.
Still for that read-out and setting: the value for `CC(C)CC(=O)N[C@H](C(=O)N[C@H](C(=O)N[C@@H](CC(C)C)[C@@H](O)CC(=O)N[C@@H](C)C(=O)N[C@@H](CC(C)C)[C@@H](O)CC(=O)O)C(C)C)C(C)C` [Pepstatin] (Isovaleryl-VV[Sta]A[Sta]-OH) was 165.7%.
On to `O=S(=O)(F)Cc1ccccc1` [Phenylmethylsulfonylfluoride], for which the “inhibition of svPEP activity (in words)” value is listed as “comparatively strong inhibition” in data set [1] (listed as phenyl methylsulfonylfluoride) and “inhibited” in data set [1] (listed as phenylmethylsulfonyl fluoride). In addition, the relative activity in data set [1] (setting [7]) is listed as 39.7%.
For `O=C[C@@H]1CCCN1C(=O)[C@@H]1CCCN1C(=O)OCc1ccccc1` [Z-(S)Pro-(S)Prolinal] (Cbz-Pro-Pro-aldehyde), the relative activity in data set [1] (setting [7]) stood at 111.2%.
Regarding `O=C[C@@H]1CCCN1C(=O)[C@@H]1CCCN1C(=O)OCc1ccccc1` [Z-Pro-(S)Prolinal] (Cbz-Pro-Pro-aldehyde), the relative activity in data set [1] (setting [7]) was 105.8%.
The same measure, in the same setting: with `O=C[C@@H]1CCCN1C(=O)[C@@H]1CCCN1C(=O)OCc1ccccc1` [Z-Pro-Prolinal] (Cbz-Pro-Pro-aldehyde) the figure was 99.7%.
In the case of `O=C(O)c1cc[c]([Hg][Cl])cc1` [p-Chloromercuribenzoic acid], the “inhibition of svPEP activity (in words)” value in data set [1] is listed as “inhibited to some extent”. Besides, in data set [1] (setting [7]), the relative activity amounted to 87.1%.
AAA-pNA: the “relative activity (specificity of svPEP for peptide substrate)” value in data set [2] amounted to 8.5%.
Regarding “AAF-pNA (Ala-Ala-Phe-pNA) [p-nitroanilide peptide substrate for svPEP]”, in data set [2], the “relative activity (specificity of svPEP for peptide substrate)” value is 4.1%.
“AAPL-pNA [p-nitroanilide peptide substrate for svPEP]”: the “relative activity (specificity of svPEP for peptide substrate)” value in data set [2] stood at 0.3%.
As to “Ala-Ala-Pro-pNA [AAP-pNA, p-nitroanilide peptide substrate for svPEP]”, in data set [2], the “relative activity (specificity of svPEP for peptide substrate)” value amounted to 100% and the “substrate recognition by svPEP (in words)” value (shortened to “substrate recognition”) is reported as “preferably recognized”.
With “Ala-Phe-Pro-pNA [AFP-pNA, p-nitroanilide peptide substrate for svPEP]”, in data set [2], the “relative activity (specificity of svPEP for peptide substrate)” value is listed as 26.3% and the “substrate recognition” value was “preferably recognized”.
For the molecule “Aminoethylbenzenesulfonylfluoride hydrochloride”, in data set [1] (hydrochloride), the “inhibition of svPEP activity (in words)” value is reported as “comparatively strong inhibition; also recorded: inhibited”. For the same molecule, the relative activity in data set [1] (compound 4 mM, 10 min room temperature, then Ala-Ala-Pro-pNA, 30° C., 5 min, activity without compound = 100%) turned out to be 59.9%.
In the case of “Bz-Phe-Val-Arg-pNA ({Bz′}-Phe-Val-Arg-pNA) [Bz-FVR-pNA, p-nitroanilide peptide substrate]”, the “relative activity (specificity of svPEP for peptide substrate)” value in data set [2] came out at 0.002%.
On the same count and under the same terms, the value for “PSFRAP-pNA [p-nitroanilide peptide substrate for svPEP]” was 0.2%.
Take Phe-Arg-Ala-Pro-pNA (FRAP-pNA): in data set [2], the “relative activity (specificity of svPEP for peptide substrate)” value amounted to 49.0% and the “substrate recognition” value is given as “preferably recognized”.
Take “SFRAP-pNA [p-nitroanilide peptide substrate for svPEP]”: the “relative activity (specificity of svPEP for peptide substrate)” value in data set [2] worked out at 1.23%.
For “Suc-AAPF-pNA [p-nitroanilide peptide substrate for svPEP]”, in data set [2], the “relative activity (specificity of svPEP for peptide substrate)” value was 0.01%.
Still for that read-out and setting: the value for “Z-AGP-βNA ({code Z}-Ala-Gly-Pro-βNA; reading uncertain; also: printed as Z-AGP-βNA) [β-naphtylamido peptide substrate for svPEP]” was 0.78%; that for “Z-GAP-βNA ({code Z}-Gly-Ala-Pro-βNA; reading uncertain; also: printed as Z-GAP-βNA) [β-naphtylamido peptide substrate for svPEP]” was 1.2%; that for p-pNA was 0.04%.

B1: transglutaminase: S. mobaraense transglutaminase secreto-produced as pro-form in C. glutamicum ATCC13869, pro-structure part cleaved by protease (protein)
chain: DSDDRVTPPAEPLDRMPDPYRPSYGRAETVVNNYIRKWQQVYSHRDGRKQQMTEEQREWLSYGCVGVTWVNSGQYPTNRLAFASFDEDRFKNELKNGRPRSGETRAEFEGRVAKESFDEEKGFQRAREVASVMNRALENAHDESAYLDNLKKELANGNDALRNEDARSPFYSALRNTPSFKERNGGNHDPSRMKAVIYSKHFWSGQDRSSSADKRKYGDPDAFRPAPGTGLVDMSRDRNIPRSPTSPGEGFVNFDYGWFGAQTEADADKTVWTHGNHYHAPNGSLGAMHVYESKFRNWSEGYSDFDRGAYVITFIPKSWNTAPDKVKQGWP
modifications: Streptoverticillium mobaraense
notes: S. mobaraense transglutaminase secreto-produced as pro-form in C. glutamicum ATCC13869, pro-structure part cleaved by protease
Regarding B1, the specific activity entry in data set [3] (after Dispase digestion (37° C., pH 7.5, 1 hour) of culture supernatant of C. glutamicum ATCC13869 harboring pVKPTG1-4 or pPKPTG1-4) is “about 20 U/mg”; in data set [3] (after Dispase digestion (37° C., pH 7.5, 1 hour) of culture supernatant of C. glutamicum harboring pVKSPTG1, pVTSPTG1, pPKSPTG1 or pPTSPTG1), “about 20 U/mg”; in data set [3] (culture supernatant of C. glutamicum harboring pVSS1 (SAMP45) and pPKSPTG1, Phe-Arg-Ala-Pro added at N-terminal), “about 20 U/mg”; in data set [3] (culture supernatant of C. glutamicum harboring pVSS1 and pPKSPTG11 or pPKSPTG12) it was “about 20 U/mg”; in data set [3] (culture supernatant of C. glutamicum harboring pVSSSP1 (SAMP45 and svPEP) and pPKSPTG1), “about 20 U/mg”; in data set [3] (pro-structure cleaved with culture medium of S. mobaraense IFO13819, 30° C., 6 hours), “about 20 U/mg”. In data set [3] (pro-structure cleaved with washed cells of S. mobaraense, 30° C., 6 hours), the specific activity result is on record as “about 20 U/mg”.

B2: svPEP: proline-specific peptidase produced by S. mobaraense IFO13819; mature sequence SEQ ID NO:40 (protein)
chain: QADIKDRILKIPGMKFVEEKPYQGYRYLVMTYRQPVDHRNPGKGTFEQRFTLLHKDTDRPTVFFTSGYNVSTNPSRSEPTRIVDGNQVSMEYRFFTPSRPQPADWSKLDIWQAASDQHRLYQALKPVYGKNWLATGGSKGGMTATYFRRFYPNDMNGTVAYVAPNDVNDKEDSAYDKFFQNVGDKACRTQLNSVQREALVRRDEIVARYEKWAKENGKTFKVVGSADKAYENVVLDLVWSFWQYHLQSDCASVPATKASTDELYKFIDDISGFDGYTDQGLERFTPYYYQAGTQLGAPTVKNPHLKGVLRYPGINQPRSYVPRDIPMTFRPGAMADVDRWVREDSRNMLFVYGQNDPWSGEPFRLGKGAAARHDYRFYAPGGNHGSNIAQLVADERAKATAEVLKWAGVAPQAVQKDEKAAKPLAPFDAKLDRVKNDKQSALRP
modifications: Streptoverticillium mobaraense
B2: in data set [4], the isoelectric point came to 10.2. Also, the “optimum pH” value in data set [5] (Ala-Ala-Pro-pNA, 30° C., 5 min) is recorded as 6.0-6.5. In data set [5] (overnight at 4° C. in 0.15 M GTA buffers pH 3 to 10), the “pH stability (stable at pH)” value is on record as 4-9. Further, in data set [5] (pH 6.5, 20° C.-60° C., 5 min), the optimum temperature was 25-30 °C. For the same molecule, in data set [5] (pH 6.5, 15 min at 4° C. or 20° C.-60° C.), the “temperature stability (stable below)” value was “below 20 °C”.

The record behind these values is patent publication US7972829B2, “Process for producing transglutaminase” (Ajinomoto Co., Inc., priority 1999, dated 2011).
